From ChEMBL document CHEMBL5705887, “Distinct concentration-dependent effects of the polo-like kinase 1-specific inhibitor GSK461364A, including differential effect on apoptosis” (Cancer Res, 2009)
Active and inactive are the calls of the source. The rule behind the calls is not given here.

Experiments:
[1] = target: Calcium/calmodulin-dependent protein kinase type II subunit delta (Homo sapiens) (UniProt Q13557); test: Inhibition recombinant human CAMKII-delta at 10 uM relative to control
[2] = target: Ribosomal protein S6 kinase alpha-1 (Homo sapiens) (UniProt Q15418); test: Inhibition of N-terminal his6-tagged recombinant human RSK1 (2 to end residues) expressed in baculovirus Sf21 insect cells at 10 uM relative to control
[3] = target: Fibroblast growth factor receptor 3 (Homo sapiens) (UniProt P22607); test: Inhibition of N-terminal his6-tagged recombinant human FGFR3 (447 to 761 residues) expressed in baculovirus Sf21 insect cells at 10 uM relative to control
Raji = test: Antiproliferative activity against human Raji cells assessed as growth inhibition incubated for 72 hrs by celltiter-glo assay; assay type: functional
NCI-H460 = test: Antiproliferative activity against human NCI-H460 cells assessed as growth inhibition incubated for 72 hrs by celltiter-glo assay; assay type: functional
BXPC-3 = test: Antiproliferative activity against human BXPC-3 cells assessed as growth inhibition incubated for 72 hrs by celltiter-glo assay; assay type: functional
NCI-H1155 [4] = test: Antiproliferative activity against human NCI-H1155 cells assessed as growth inhibition incubated for 72 hrs by celltiter-glo assay; assay type: functional
A549 [5] = test: Antiproliferative activity against human A549 cells assessed as growth inhibition incubated for 72 hrs by celltiter-glo assay; assay type: functional
ZR-75-1 = test: Antiproliferative activity against human ZR-75-1 cells assessed as growth inhibition incubated for 72 hrs by celltiter-glo assay; assay type: functional
NCI-H358 = test: Antiproliferative activity against human NCI-H358 cells assessed as growth inhibition incubated for 72 hrs by celltiter-glo assay; assay type: functional
Calu-1 [6] = test: Antiproliferative activity against human Calu-1 cells assessed as growth inhibition incubated for 72 hrs by celltiter-glo assay; assay type: functional
[7] = Cytotoxicity against human HUVEC cells assessed as inhibition of cell growth incubated for 72 hrs by celltiter-glo assay; assay type: toxicity, cell-based
U2OS = test: Induction of mitotic arrest in human U2OS cells expressing fused cyclin B1-GFP at > 250 nmol/L incubated for 48 hrs by image based analysis; assay type: functional, cell-based
A549 [8] = test: Induction of mitotic arrest in human A549 cells assessed as effect on pHH3 level at 10 to 250 nmol/L incubated for 19 hrs by ELISA analysis; assay type: functional, cell-based; settings: dose 10-250 nmol/L
HT-29 [9] = test: Induction of mitotic arrest in human HT-29 cells assessed as effect on pHH3 level at 10 to 250 nmol/L incubated for 19 hrs by ELISA analysis; assay type: functional, cell-based; settings: dose 10-250 nmol/L
COLO 205 [10] = test: Antitumor activity against human COLO 205 cells xenografted in Nude mouse assessed as tumor growth delay time at 50 mg/kg, ip administered every 2 to 4 days; assay type: functional; settings: time 2-4 day
COLO 205 [11] = test: Antitumor activity against human COLO 205 cells xenografted in Nude mouse assessed as tumor growth delay time at 50 mg/kg, ip administered for 12 days; assay type: functional; settings: time 12 day
COLO 205 [12] = test: Antitumor activity against human COLO 205 cells xenografted in Nude mouse assessed as tumor regression at 50 mg/kg, ip administered for 12 days; assay type: functional, organism-based; settings: time 12.0 day
COLO 205 [13] = test: Antitumor activity against human COLO 205 cells xenografted in Nude mouse assessed as increase in pHH3 level at 50 to 100 mg/kg, ip measured at 24 to 48 hrs by immunohistochemistry analysis; assay type: functional, organism-based; settings: dose 50-100 mg/kg, time 24-48 hrs
BT-474 = test: Antiproliferative activity against human BT-474 cells assessed as of viable cell signal at minimum maximum cell growth incubated for 72 hrs by celltiter-glo assay relative to control; assay type: functional
Calu-1 [14] = test: Antiproliferative activity against human Calu-1 cells assessed as of viable cell signal at minimum maximum cell growth incubated for 72 hrs by celltiter-glo assay relative to control; assay type: functional
NCI-H157 [15] = test: Antiproliferative activity against human NCI-H157 cells assessed as of viable cell signal at minimum maximum cell growth incubated for 72 hrs by celltiter-glo assay relative to control; assay type: functional
HeLa [16] = test: Antiproliferative activity against human HeLa cells assessed as of viable cell signal at minimum maximum cell growth incubated for 72 hrs by celltiter-glo assay relative to control; assay type: functional
HT-29 [17] = test: Antiproliferative activity against human HT-29 cells assessed as of viable cell signal at minimum maximum cell growth incubated for 72 hrs by celltiter-glo assay relative to control; assay type: functional
K562 = test: Antiproliferative activity against human K562 cells assessed as of viable cell signal at minimum maximum cell growth incubated for 72 hrs by celltiter-glo assay relative to control; assay type: functional
LNCaP = test: Antiproliferative activity against human LNCaP cells assessed as of viable cell signal at minimum maximum cell growth incubated for 72 hrs by celltiter-glo assay relative to control; assay type: functional
NCI-H1155 [18] = test: Antiproliferative activity against human NCI-H1155 cells assessed as of viable cell signal at minimum maximum cell growth incubated for 72 hrs by celltiter-glo assay relative to control; assay type: functional
NCI-H82 = test: Antiproliferative activity against human NCI-H82 cells assessed as of viable cell signal at minimum maximum cell growth incubated for 72 hrs by celltiter-glo assay relative to control; assay type: functional
PC-3 = test: Antiproliferative activity against human PC-3 cells assessed as of viable cell signal at minimum maximum cell growth incubated for 72 hrs by celltiter-glo assay relative to control; assay type: functional
SAOS-2 = test: Antiproliferative activity against human SAOS-2 cells assessed as of viable cell signal at minimum maximum cell growth incubated for 72 hrs by celltiter-glo assay relative to control; assay type: functional
SK-MEL-28 = test: Antiproliferative activity against human SK-MEL-28 cells assessed as of viable cell signal at minimum maximum cell growth incubated for 72 hrs by celltiter-glo assay relative to control; assay type: functional
SK-MEL3 = test: Antiproliferative activity against human SK-MEL3 cells assessed as of viable cell signal at minimum maximum cell growth incubated for 72 hrs by celltiter-glo assay relative to control; assay type: functional
SW480 = test: Antiproliferative activity against human SW480 cells assessed as of viable cell signal at minimum maximum cell growth incubated for 72 hrs by celltiter-glo assay relative to control; assay type: functional
SW-620 = test: Antiproliferative activity against human SW620 cells assessed as of viable cell signal at minimum maximum cell growth incubated for 72 hrs by celltiter-glo assay relative to control; assay type: functional
A2780 = test: Antiproliferative activity against human A2780 cells assessed as viable cell signal at maximum growth inhibition incubated for 72 hrs by celltiter-glo assay relative to control; assay type: functional
Calu-3 = test: Antiproliferative activity against human Calu-3 cells assessed as viable cell signal at maximum growth inhibition incubated for 72 hrs by celltiter-glo assay relative to control; assay type: functional
NCI-H157 [19] = test: Antiproliferative activity against human NCI-H157 cells assessed as viable cell signal at maximum growth inhibition incubated for 72 hrs by celltiter-glo assay relative to control; assay type: functional
HeLa [20] = test: Antiproliferative activity against human HeLa cells assessed as viable cell signal at maximum growth inhibition incubated for 72 hrs by celltiter-glo assay relative to control; assay type: functional
HL-60 = test: Antiproliferative activity against human HL-60 cells assessed as viable cell signal at maximum growth inhibition incubated for 72 hrs by celltiter-glo assay relative to control; assay type: functional
RKO = test: Antiproliferative activity against human RKO cells assessed as viable cell signal at maximum growth inhibition incubated for 72 hrs by celltiter-glo assay relative to control; assay type: functional

Chain of Calcium/calmodulin-dependent protein kinase type II subunit delta (Homo sapiens) (Q13557 whole entry): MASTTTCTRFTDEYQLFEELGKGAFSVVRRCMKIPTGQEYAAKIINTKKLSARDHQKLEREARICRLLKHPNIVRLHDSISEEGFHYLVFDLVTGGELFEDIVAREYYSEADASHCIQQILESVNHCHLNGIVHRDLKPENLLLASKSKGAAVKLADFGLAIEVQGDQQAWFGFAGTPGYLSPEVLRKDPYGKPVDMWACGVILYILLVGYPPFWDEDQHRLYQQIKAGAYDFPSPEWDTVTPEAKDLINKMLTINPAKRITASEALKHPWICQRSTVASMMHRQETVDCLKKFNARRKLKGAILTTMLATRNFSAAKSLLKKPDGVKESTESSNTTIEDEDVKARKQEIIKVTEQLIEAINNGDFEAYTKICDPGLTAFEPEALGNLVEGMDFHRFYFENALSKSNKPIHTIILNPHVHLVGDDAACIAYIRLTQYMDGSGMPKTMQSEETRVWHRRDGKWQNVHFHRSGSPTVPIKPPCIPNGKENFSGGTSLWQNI
Chain of Fibroblast growth factor receptor 3 (Homo sapiens) (P22607 23-806 limits assumed): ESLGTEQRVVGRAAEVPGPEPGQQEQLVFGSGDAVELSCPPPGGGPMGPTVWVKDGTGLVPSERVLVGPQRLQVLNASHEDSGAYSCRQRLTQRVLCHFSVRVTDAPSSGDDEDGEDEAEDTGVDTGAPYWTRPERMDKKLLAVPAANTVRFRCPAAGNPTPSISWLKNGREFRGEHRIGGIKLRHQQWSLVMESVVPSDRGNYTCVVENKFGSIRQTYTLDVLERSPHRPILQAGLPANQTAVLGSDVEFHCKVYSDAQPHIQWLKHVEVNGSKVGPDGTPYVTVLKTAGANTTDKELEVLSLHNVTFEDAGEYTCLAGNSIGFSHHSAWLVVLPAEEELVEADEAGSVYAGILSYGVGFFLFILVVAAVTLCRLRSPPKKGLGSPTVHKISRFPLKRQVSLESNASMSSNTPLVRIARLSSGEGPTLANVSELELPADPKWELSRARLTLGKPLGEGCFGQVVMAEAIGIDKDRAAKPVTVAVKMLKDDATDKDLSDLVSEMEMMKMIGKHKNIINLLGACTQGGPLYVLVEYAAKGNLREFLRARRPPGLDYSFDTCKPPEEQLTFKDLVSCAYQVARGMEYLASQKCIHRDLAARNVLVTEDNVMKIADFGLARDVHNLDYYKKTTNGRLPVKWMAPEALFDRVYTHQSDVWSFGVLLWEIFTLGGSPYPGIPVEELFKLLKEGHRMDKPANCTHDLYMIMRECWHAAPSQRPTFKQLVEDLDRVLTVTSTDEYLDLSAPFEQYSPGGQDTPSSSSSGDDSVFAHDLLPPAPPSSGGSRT
Chain of Ribosomal protein S6 kinase alpha-1 (Homo sapiens) (Q15418 whole entry, the tested form may be a part): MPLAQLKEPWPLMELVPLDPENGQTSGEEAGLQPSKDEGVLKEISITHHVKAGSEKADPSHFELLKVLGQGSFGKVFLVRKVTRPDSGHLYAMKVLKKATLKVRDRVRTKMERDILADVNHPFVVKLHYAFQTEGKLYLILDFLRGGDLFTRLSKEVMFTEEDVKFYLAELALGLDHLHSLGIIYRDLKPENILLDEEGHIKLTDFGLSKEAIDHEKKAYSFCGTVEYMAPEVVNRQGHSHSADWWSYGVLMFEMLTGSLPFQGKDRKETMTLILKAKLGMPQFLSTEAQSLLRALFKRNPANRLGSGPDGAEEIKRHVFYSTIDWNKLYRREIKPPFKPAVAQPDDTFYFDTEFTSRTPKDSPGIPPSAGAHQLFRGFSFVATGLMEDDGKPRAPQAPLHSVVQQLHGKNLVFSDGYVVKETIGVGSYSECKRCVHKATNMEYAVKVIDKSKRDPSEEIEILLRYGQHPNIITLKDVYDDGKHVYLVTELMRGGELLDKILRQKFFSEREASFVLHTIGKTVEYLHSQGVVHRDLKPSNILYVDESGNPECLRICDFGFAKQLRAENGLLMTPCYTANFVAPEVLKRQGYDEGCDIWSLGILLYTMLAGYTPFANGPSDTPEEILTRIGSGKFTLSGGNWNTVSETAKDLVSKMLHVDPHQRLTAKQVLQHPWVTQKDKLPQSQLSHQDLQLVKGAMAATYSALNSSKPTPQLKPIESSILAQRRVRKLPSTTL

## C[C@@H](Oc1cc(-n2cnc3ccc(CN4CCN(C)CC4)cc32)sc1C(N)=O)c1ccccc1C(F)(F)F [GSK-461364]
[1]
  inhibition: 88%
[2]
  inhibition: 72%
[3]
  inhibition: 60%
Raji
  GI50: 25.3 nM
NCI-H460
  GI50: 37.8 nM
BXPC-3
  GI50: 23.1 nM
NCI-H1155 [4]
  GI50: 14.4 nM
A549 [5]
  GI50: 34 nM
ZR-75-1
  GI50: 46.5 nM
NCI-H358
  GI50: 13.4 nM
Calu-1 [6]
  GI50: 186 nM
[7]
  IC50 at 72 h: 7 nM
U2OS
  Activity: Active
A549 [8]
  Activity: Active
HT-29 [9]
  Activity: Active
COLO 205 [10]
  Time: 39 days
COLO 205 [11]
  Time: 62 days
COLO 205 [12]
  Activity: Active
COLO 205 [13]
  Activity: Active
BT-474
  Emin: 217%
Calu-1 [14]
  Emin: 179.8%
NCI-H157 [15]
  Emin: 95.3%
HeLa [16]
  Emin: 32.2%
HT-29 [17]
  Emin: 327.7%
K562
  Emin: 91.2%
LNCaP
  Emin: 99.3%
NCI-H1155 [18]
  Emin: 119.2%
NCI-H82
  Emin: 22.8%
PC-3
  Emin: 385.1%
SAOS-2
  Emin: 83.5%
SK-MEL-28
  Emin: 199.6%
SK-MEL3
  Emin: 112.5%
SW480
  Emin: 114.7%
SW-620
  Emin: 54.6%
A2780
  Emax: 977%
Calu-3
  Emax: 190%
NCI-H157 [19]
  Emax: 847%
HeLa [20]
  Emax: 406%
HL-60
  Emax: 191%
RKO
  Emax: 456%
